Usually inhibition stands for the share of the control response that was lost under treatment.

SMILES strings stand for the structures. The source made the active and inactive calls.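 How the source made its calls: active means KLF5 protein level in colon cancer cells lowered or raised by 30% or more versus solvent-only cells; inactive means the rest.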

From PubChem BioAssay AID588661 (The Scripps Research Institute Molecular Screening Center, 2011) come the findings set out here.

Test [1] concerns SW620 cells, KLF5 protein western blot, 24 h. Briefly: KLF5 protein abundance by immunoblot – western blot, chemiluminescence, SW620 colorectal cells, counter-screen for KLF5 inhibitor project, late-stage follow-up (AID 588661). The following applies: measured here: KLF5 protein fold change vs DMSO; at 10 µM. (In general: In western blotting, separated proteins are transferred to a membrane and probed.)

In test [2] the target is Krueppel-like factor 5 (Homo sapiens) (UniProt Q13887). Described as above. The note with it: SW620 cells, KLF5 protein western blot, 24 h; at 10 µM; stronger effect = higher value.
Sequence of Krueppel-like factor 5 (Homo sapiens) (Q13887 whole entry, looked up): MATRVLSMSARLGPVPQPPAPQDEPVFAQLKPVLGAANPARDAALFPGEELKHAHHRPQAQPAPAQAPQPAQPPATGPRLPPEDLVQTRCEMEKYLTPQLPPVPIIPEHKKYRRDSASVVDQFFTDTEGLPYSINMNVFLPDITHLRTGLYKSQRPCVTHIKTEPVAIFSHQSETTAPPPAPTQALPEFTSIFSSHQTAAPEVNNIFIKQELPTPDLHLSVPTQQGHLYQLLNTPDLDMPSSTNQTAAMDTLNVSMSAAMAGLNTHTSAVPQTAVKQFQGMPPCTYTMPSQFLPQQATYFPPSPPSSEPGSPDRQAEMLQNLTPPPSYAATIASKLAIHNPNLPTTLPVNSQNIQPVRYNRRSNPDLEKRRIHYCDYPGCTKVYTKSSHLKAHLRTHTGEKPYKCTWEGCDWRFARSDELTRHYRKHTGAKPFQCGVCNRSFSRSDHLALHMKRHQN

Consider `CN(C(=O)COC(=O)/C=C/c1cccc([N+](=O)[O-])c1)C1CCS(=O)(=O)C1` (configuration not stated), for which the signed fold change vs DMSO (negative = decrease) in test [1] was -1.08. Moreover, the inhibition in test [2] was 7.48% (inactive).
